Each compound was assayed on xanthurenic acid receptor (assay: Screening: displacement of [3H]-XA binding to synaptic membranes at a fixed concentration). Conditions: not given.
Experimental: If this concentration produces the same or greater displacement than the same concentration of non-radiolabelled XA, then an IC50 is determined. […] The incubation time is 25 min. […] The filters are placed in scintillation vials to which 5 ml of Rotiszint® (Roth) are added and the vials are counted in a Beckman LS6000sc liquid scintillation counter. Specific binding is given as the difference between total binding and nonspecific binding. The percentage inhibition of binding that the synthetic compounds produce is calculated for each compound in relation to its positive control.

SMILES	effect on xanthurenic acid binding, in words
O=C(O)c1cc(O)c2cccc(Br)c2n1 [Compound 3x, 4-hydroxy-8-bromo-quinoline-2-carboxylic acid]	increase the binding of xanthurenic acid
Cl.NCCCc1cc(O)c2nc(C(=O)O)cc(O)c2c1 [Compound 22c, 4,8-dihydroxy-6-(3-amino-propyl)-quinoline-2-carboxylic acid hydrochloride]	increase the binding of xanthurenic acid

Same assay, conditions: compound at 10 μM; 200 nM [3H]-XA, synaptic membranes

SMILES	real increase in total binding (potentiation)
O=C(O)c1cc(O)c2cccc(Br)c2n1 [Compound 3x, 4-hydroxy-8-bromo-quinoline-2-carboxylic acid]	(+200% real increase
Cl.NCCCc1cc(O)c2nc(C(=O)O)cc(O)c2c1 [Compound 22c, 4,8-dihydroxy-6-(3-amino-propyl)-quinoline-2-carboxylic acid hydrochloride]	(+100% real increase

Same assay, conditions: compound at 10 μM; 200 nM [3H]-XA, synaptic membranes; xanthurenic acid set arbitrarily to 100%

SMILES	% inhibition of XA binding at 10 μM*
COc1cccc2ccc(C(=O)O)nc12	13%
Nc1cccc2ccc(C(=O)O)nc12 [Compound 4f, 8-amino-quinoline-2-carboxylic acid]	0%
COc1ccc(Br)c2ccc(C(=O)O)nc12 [Compound 4g, 8-methoxy-5-bromo-quinoline-2-carboxylic acid]	0%
O=C(O)c1cc(O)c2c(-c3ccccc3)ccc(O)c2n1 [Compound 19a, 4,8-dihydroxy-5-phenyl-quinoline-2-carboxylic acid]	1.8%
COc1ccc(-c2cc(O)c3nc(C(=O)O)cc(O)c3c2)cc1 [Compound 19g, 4,8-dihydroxy-6-(4-methoxy-phenyl)-quinoline-2-carboxylic acid]	54.5%
CCCc1cc(O)c2nc(C(=O)O)cc(O)c2c1 [Compound 19r, 4,8-dihydroxy-6-propyl-quinoline-2-carboxylic acid]	58.1%
O=C(O)c1ccc2c(-c3ccccc3)ccc(O)c2n1 [Compound 19t, 8-hydroxy-5-phenyl-quinoline-2-carboxylic acid]	50%
O=C(O)c1cc(O)c2cc(CCc3ccccc3)cc(O)c2n1 [Compound 22a, 4,8-dihydroxy-6-phenethyl-quinoline-2-carboxylic acid]	54%
CCCCCCCc1cc(O)c2nc(C(=O)O)cc(O)c2c1 [Compound 22b, 4,8-dihydroxy-6-heptyl-quinoline-2-carboxylic acid]	38%
Cl.NCCCc1cc(O)c2nc(C(=O)O)cc(O)c2c1 [Compound 22c, 4,8-dihydroxy-6-(3-amino-propyl)-quinoline-2-carboxylic acid hydrochloride]	Potentiation
O=C(O)c1cc(O)c2cc(CNCc3ccccc3)cc(O)c2n1 [Compound 26a, 4,8-dihydroxy-6-(benzylamino-methyl)-quinoline-2-carboxylic acid]	0%
COC(=O)c1cc(O)c2cc(Nc3ccccc3)cc(N)c2n1 [Compound 33c, Methyl-6-(N-anilino)-8-amino-4-hydroxy-quinoline-2-carboxylate]	97%
O=C(O)c1nc2c(O)cccc2c(O)c1CN1CCOCC1 [Compound 39b, 3-(N-morpholinomethyl)-4,8-dihydroxy-quinoline-2-carboxylic acid]	77%
O=C(O)c1nc2c(OCc3ccccc3)cccc2c(O)c1CN1CCCC1 [Compound 40a, 3-(N-pyrrolidinomethyl)-8-benzyloxy-4-hydroxy-quinoline-2-carboxylic acid]	83%
O=C(O)c1nc2c(O)cccc2c(O)c1Br [Compound 52c, 3-bromo-4,8-dihydroxy-quinoline-2-carboxylic acid]	143%
O=C(O)c1nc2c(O)c(Br)ccc2c(O)c1Br [Compound 56c, 3,7-dibromo-4,8-dihydroxy-quinoline-2-carboxylic acid]	112%
O=C(O)c1nc2c(O)cccc2[nH]c1=O [Compound 59c, 8-hydroxy-3-oxo-3,4-dihydroquinoxaline-2-carboxylic acid]	97%
O=C(O)CC1Nc2c(O)cccc2NC1=O (stereo not shown) [Compound 60c, [8-(hydroxy)-3-oxo-3,4-dihydroquinoxaline-2(1H)-yl]acetic acid]	69%
Cl.O=C(O)c1cc(O)c2cc(C3CCCCN3)cc(O)c2n1 (stereo not shown) [Compound 61b, 4,8-dihydroxy-6-piperidin-2-yl-quinoline-2-carboxylic acid hydrochloride]	97%
N#Cc1cc(CCc2ccccc2)cc2c(O)cc(C(=O)O)nc12 [Compound 65d, 8-cyano-4-hydroxy-6-phenethyl-quinoline-2-carboxylic acid]	18%
N#Cc1cccc2c(O)c(Br)c(C(=O)O)nc12 [Compound 66b, 3-bromo-8-cyano-4-hydroxy-quinoline-2-carboxylic acid]	69%
N#Cc1cccc2c(O)c(C#Cc3ccccc3)c(C(=O)O)nc12 [Compound 67c, 8-cyano-4-hydroxy-3-phenylethynyl-quinoline-2-carboxylic acid]	0%

The next lines start with the values.

% inhibition of XA binding at 10 μM*	SMILES
7.7%	Nc1cc(C(=O)O)nc2c(N)cccc12 [17'b, 4,8-diamino-quinoline-2-carboxylic acid]
42%	O=C(O)c1cc(O)c2c(Br)ccc(O)c2n1 [Compound 3c, 4,8-dihydroxy-5-bromo-quinoline-2-carboxylic acid]
48%	Cc1ccc(O)c2nc(C(=O)O)cc(O)c12 [Compound 3e, 4,8-dihydroxy-5-methyl-4-quinoline-2-carboxylic acid]
84%	O=C(O)c1cc(O)c2c(CO)ccc(O)c2n1 [Compound 3g, 4,8-dihydroxy-5-hydroxymethyl-4-quinoline-2-carboxylic acid]
21.2%	Cc1cc(O)c2nc(C(=O)O)cc(O)c2c1 [Compound 3n, 4,8-dihydroxy-6-methyl-quinoline-2-carboxylic acid]
23.4%	Cc1ccc(N)c2nc(C(=O)O)cc(O)c12 [Compound 3v, 4-hydroxy-5-methyl-8-amino-quinoline-2-carboxylic acid]
0%	Cc1cc(N)c2nc(C(=O)O)cc(O)c2c1 [Compound 3w, 4-hydroxy-6-methyl-8-amino-quinoline-2-carboxylic acid]
Potentiation	O=C(O)c1cc(O)c2cccc(Br)c2n1 [Compound 3x, 4-hydroxy-8-bromo-quinoline-2-carboxylic acid]
120%	O=C(O)c1cc(O)c2cccc(OCc3ccccc3)c2n1 [Compound 3y, 4-hydroxy-8-benzyloxy-quinoline-2-carboxylic acid]
94.5%	O=C(O)c1cc(-c2ccccc2)c2cccc(O)c2n1 [Compound 10b, 8-hydroxy-4-phenyl-quinoline-2-carboxylic acid]
0%	CC(=O)Nc1cccc2c(O)cc(C(=O)O)nc12 [Compound 28a, 8-acetylamino-4-hydroxy-quinoline-2-carboxylic acid]
0%	CC(C)(C)C(=O)Nc1cccc2c(O)cc(C(=O)O)nc12 [Compound 28b, 8-pivaloylamino-4-hydroxy-quinoline-2-carboxylic acid]
48.5%	O=C(Nc1cccc2c(O)cc(C(=O)O)nc12)c1ccccc1 [Compound 28c, 8-benzoylamino-4-hydroxy-quinoline-2-carboxylic acid]
117%	Cl.Nc1cc(N)c2nc(C(=O)O)cc(O)c2c1 [Compound 32d, 6,8-diamino-4-hydroxy-quinoline-2-carboxylic acid hydrochloride]
94%	O=C(O)c1cc(O)c2cccc(F)c2n1 [Compound 36c, 8-fluoro-4-hydroxy-quinoline-2-carboxylic acid]
77%	NC(=O)c1cccc2c(O)cc(C(=O)O)nc12 [Compound 37c, 8-carboxamide-4-hydroxy-quinoline-2-carboxylate acid]
72%	CNc1cc(C(=O)O)nc2c(N)cccc12.Cl [Compound 38d, 4-(N-methylamino)-8-amino-quinoline-2-carboxylic acid hydrochloride]
43%	CN(C)c1cccc2c(O)cc(C(=O)O)nc12 [Compound 41d, 8-dimethylamino-4-hydroxy-quinoline-2-carboxylic acid]
103%	O=C(O)c1cc(O)c2ccc(CCc3ccccc3)c(O)c2n1 [Compound 55b, 4,8-dihydroxy-7-phenethyl-quinoline-2-carboxylic acid]
94%	Cl.O=C(O)c1cc(O)c2cccc(-c3nn[nH]n3)c2n1 [Compound 62b, 4-hydroxy-8-(2H-tetrazol-5-yl)-quinoline-2-carboxylic acid hydrochloride]
46%	N#Cc1cc(Br)cc2c(O)cc(C(=O)O)nc12 [Compound 63c, 6-bromo-8-cyano-4-hydroxy-quinoline-2-carboxylic acid]
14%	N#Cc1cc(-c2ccccc2)cc2c(O)cc(C(=O)O)nc12 [Compound 64b, 8-cyano-4-hydroxy-6-phenyl-quinoline-2-carboxylic acid]

Same assay, conditions: compound at 50 μM; 200 nM [3H]-XA, synaptic membranes; xanthurenic acid set arbitrarily to 100%

SMILES	% inhibition of XA binding at 50 μM*
Cc1ccc(S(=O)(=O)Nc2cc(C(=O)O)nc3c(O)cccc23)cc1 [Compound 16a, 8-hydroxy-4-(toluene-4-sulfonylamino)-quinoline-2-carboxylic acid]	77%
